Measurements from patent US7880007B2, “Bicyclic substituted phenyl piperidine modulators of muscarinic receptors” (Vertex Pharmaceuticals Incorporated, priority 2004, dated 2011).

Columns and labels:
Type in all cases: cell-based
M3 muscarinic receptor = molecular target: T1, M3 muscarinic receptor (Homo sapiens, UniProt P20309); assay: Functional mobilization of intracellular calcium (FLIPR), M3-CHO cells; settings: for M3 Activity: M3-CHO cells, calcium mobilization (FLIPR)
T1 construct: expressed in transfected cells; host or cells: CHO (M3-CHO)
In short: (§1)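 CHO cells expressing human M1–M4 receptors loaded with Fluo-3 AM or Calcium 3 dye (1 mM probenecid, pH 7.4); 0.5% DMSO final. Agonist mode: compound added directly; antagonist mode: 15 min pre-incubation or co-application, then carbachol at EC80. Fluorescence read 60 s on FLIPR; efficacy relative to carbachol maximum.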

M2 muscarinic receptor = molecular target: T2, M2 muscarinic receptor (Homo sapiens, UniProt P08172); assay: Functional mobilization of intracellular calcium (FLIPR), M2-CHO cells; settings: for M2 Activity: M2-CHO cells, calcium mobilization (FLIPR)
T2 construct: expressed in transfected cells; host or cells: CHO (M2-CHO)
T2 sequence (P08172 1-466): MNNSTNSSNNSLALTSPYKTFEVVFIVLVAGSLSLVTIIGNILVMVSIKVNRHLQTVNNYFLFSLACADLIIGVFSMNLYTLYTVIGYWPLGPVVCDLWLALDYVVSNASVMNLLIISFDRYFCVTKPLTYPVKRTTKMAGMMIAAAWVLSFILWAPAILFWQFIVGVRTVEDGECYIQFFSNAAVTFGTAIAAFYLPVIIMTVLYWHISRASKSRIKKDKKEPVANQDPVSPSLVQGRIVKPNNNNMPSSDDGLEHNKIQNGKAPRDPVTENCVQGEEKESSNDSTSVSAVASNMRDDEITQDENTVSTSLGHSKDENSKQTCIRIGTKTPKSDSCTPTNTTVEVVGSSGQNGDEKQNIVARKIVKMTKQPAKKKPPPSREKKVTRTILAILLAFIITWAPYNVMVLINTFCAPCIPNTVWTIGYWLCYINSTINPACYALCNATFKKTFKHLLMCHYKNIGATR
In short: as §1

M4 muscarinic receptor = molecular target: T3, M4 muscarinic receptor (Homo sapiens, UniProt P08173); assay: Functional mobilization of intracellular calcium (FLIPR), M4-CHO cells; settings: for M4 Activity: M4-CHO cells, calcium mobilization (FLIPR)
T3 construct: expressed in transfected cells; host or cells: CHO (M4-CHO)
T3 sequence (P08173 1-479): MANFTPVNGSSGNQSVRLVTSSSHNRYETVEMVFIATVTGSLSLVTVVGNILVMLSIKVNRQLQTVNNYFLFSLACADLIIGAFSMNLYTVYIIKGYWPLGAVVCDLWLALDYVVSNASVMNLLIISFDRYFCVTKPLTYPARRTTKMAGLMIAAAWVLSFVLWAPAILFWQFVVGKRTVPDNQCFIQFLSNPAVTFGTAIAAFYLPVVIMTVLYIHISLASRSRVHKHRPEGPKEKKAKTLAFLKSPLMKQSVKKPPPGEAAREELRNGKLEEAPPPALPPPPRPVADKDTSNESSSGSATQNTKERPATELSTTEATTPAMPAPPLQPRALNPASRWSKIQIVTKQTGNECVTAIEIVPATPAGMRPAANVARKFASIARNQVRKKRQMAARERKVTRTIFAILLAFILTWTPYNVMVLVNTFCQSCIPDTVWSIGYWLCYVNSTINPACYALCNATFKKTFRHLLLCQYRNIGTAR
In short: as §1

M1 muscarinic receptor = molecular target: T4, M1 muscarinic receptor (Homo sapiens, UniProt P11229); assay: Functional mobilization of intracellular calcium (FLIPR), M1-CHO cells; settings: for M1 Activity: M1-CHO cells, calcium mobilization (FLIPR)
T4 construct: expressed in transfected cells; host or cells: CHO (M1-CHO)
T4 sequence (P11229 1-460): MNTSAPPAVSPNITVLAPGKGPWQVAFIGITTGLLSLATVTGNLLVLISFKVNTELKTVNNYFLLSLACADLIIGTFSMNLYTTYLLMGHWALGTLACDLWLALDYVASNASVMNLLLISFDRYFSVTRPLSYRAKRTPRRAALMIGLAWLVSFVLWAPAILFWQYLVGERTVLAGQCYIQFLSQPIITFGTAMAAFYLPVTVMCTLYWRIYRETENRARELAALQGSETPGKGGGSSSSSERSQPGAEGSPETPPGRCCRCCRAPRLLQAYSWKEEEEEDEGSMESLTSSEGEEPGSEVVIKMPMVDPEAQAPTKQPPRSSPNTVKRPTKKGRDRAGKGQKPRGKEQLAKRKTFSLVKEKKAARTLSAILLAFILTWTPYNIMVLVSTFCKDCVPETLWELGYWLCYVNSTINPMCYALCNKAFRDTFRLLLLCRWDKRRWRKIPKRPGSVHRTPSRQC
In short: as §1

[1] = 100% efficacy = maximum response obtained with the Carbachol control
[2] = 100% efficacy is the maximum response obtained with the Carbachol control

T1 sequence (P20309 whole entry): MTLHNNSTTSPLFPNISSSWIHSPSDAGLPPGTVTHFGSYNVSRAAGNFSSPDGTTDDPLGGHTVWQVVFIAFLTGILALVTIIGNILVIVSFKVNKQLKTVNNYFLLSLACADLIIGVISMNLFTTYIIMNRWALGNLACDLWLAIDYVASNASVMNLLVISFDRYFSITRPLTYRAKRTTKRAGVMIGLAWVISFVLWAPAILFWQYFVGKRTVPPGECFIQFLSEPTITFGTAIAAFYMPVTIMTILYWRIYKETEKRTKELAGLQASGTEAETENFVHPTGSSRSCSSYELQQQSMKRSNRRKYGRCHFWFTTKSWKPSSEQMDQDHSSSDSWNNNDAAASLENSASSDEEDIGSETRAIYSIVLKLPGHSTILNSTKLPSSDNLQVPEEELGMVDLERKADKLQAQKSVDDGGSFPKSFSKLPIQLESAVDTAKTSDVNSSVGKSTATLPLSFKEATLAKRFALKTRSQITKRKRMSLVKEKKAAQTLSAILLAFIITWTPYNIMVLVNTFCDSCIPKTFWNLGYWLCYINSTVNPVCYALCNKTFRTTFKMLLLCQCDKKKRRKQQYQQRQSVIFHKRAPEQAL

Q: With `CNC(=O)c1ccc(-c2ccc(OC)c(C3CCN(C4CC5CCC(C5)C4)CC3)c2)cc1Cl` (stereo not drawn) [Compound 100] as the compound, how does the Emax (M3 muscarinic receptor; [1]) read?
A: Its Emax is < 25%.

Q: What about the “M3 Activity” value (M3 muscarinic receptor) of the same compound?
A: The value was “+ (activity was measured to be greater than 5.0 μM)”.

Q: And the Emax (M2 muscarinic receptor; [1])?
A: Its Emax is < 25%.

Q: What about the “M2 Activity” value (M2 muscarinic receptor) of the same compound?
A: Its value is “+ (activity was measured to be greater than 5.0 μM)”.

Q: And the Emax (M4 muscarinic receptor; [1])?
A: Its Emax is 25 to 100%.

Q: What about the “M4 Activity” value (M4 muscarinic receptor) of the same compound?
A: The value was “++ (activity was measured to be from 1.0 μM to 5.0 μM)”.

Q: What about the Emax (M1 muscarinic receptor; [1]) of the same compound?
A: The Emax was < 25%.

Q: What about the “M1 Activity” value (M1 muscarinic receptor) of the same compound?
A: The value was “+ (activity was measured to be greater than 5.0 μM)”.

Q: How did the Emax (M3 muscarinic receptor; [1]) turn out when `COc1ccc(-c2ccc(C#N)cc2)cc1C1CCN(C2CCCCC2)CC1` [Compound 342] was run?
A: The Emax was < 25%.

Q: And the “M3 Activity” value (M3 muscarinic receptor)?
A: Its value is “+ (activity was measured to be greater than 5.0 μM)”.

Q: And the Emax (M2 muscarinic receptor; [1])?
A: The Emax was < 25%.

Q: And the “M2 Activity” value (M2 muscarinic receptor)?
A: Its value is “+ (activity was measured to be greater than 5.0 μM)”.

Q: And the Emax (M4 muscarinic receptor; [1])?
A: The Emax was 25 to 100%.

Q: What about the “M4 Activity” value (M4 muscarinic receptor) of the same compound?
A: Its value is “++ (activity was measured to be from 1.0 μM to 5.0 μM)”.

Q: What about the Emax (M1 muscarinic receptor; [1]) of the same compound?
A: The Emax was 25 to 100%.

Q: And the “M1 Activity” value (M1 muscarinic receptor)?
A: The value was “+ (activity was measured to be greater than 5.0 μM)”.

Q: Which results are given for `CCC(C)Oc1ccccc1C1CCN([C@H]2C[C@H]3CC[C@H]2C3)CC1` (stereo partly drawn) [Compound 384]?
A: Emax (M3 muscarinic receptor; [2]): < 25%; M3 Activity (M3 muscarinic receptor): + (activity was measured to be greater than 5.0 μM); Emax (M2 muscarinic receptor; [2]): < 25%; M2 Activity (M2 muscarinic receptor): + (activity was measured to be greater than 5.0 μM); Emax (M4 muscarinic receptor; [2]): 25 to 100%; M4 Activity (M4 muscarinic receptor): ++ (activity was measured to be from 1.0 μM to 5.0 μM); Emax (M1 muscarinic receptor; [2]): 25 to 100%; M1 Activity (M1 muscarinic receptor): + (activity was measured to be greater than 5.0 μM)

Q: Which results are given for `C=CCON=C1CCC(N2CCC(c3cc(Cl)ccc3OC)CC2)CC1` (stereo not drawn) [Compound 350]?
A: M3 Efficacy (M3 muscarinic receptor; [1]): + (efficacy was calculated to be less than 25%); M3 Activity (M3 muscarinic receptor): + (activity was measured to be greater than 5.0 μM); M2 Efficacy (M2 muscarinic receptor; [1]): + (efficacy was calculated to be less than 25%); M2 Activity (M2 muscarinic receptor): ++ (activity was measured to be from 1.0 μM to 5.0 μM); M4 Efficacy (M4 muscarinic receptor; [1]): ++ (efficacy was calculated to be from 100% to 25%); M4 Activity (M4 muscarinic receptor): +++ (activity was measured to be less than 1.0 μM); M1 Efficacy (M1 muscarinic receptor; [1]): ++ (efficacy was calculated to be from 100% to 25%); M1 Activity (M1 muscarinic receptor): +++ (activity was measured to be less than 1.0 μM)

Q: Which results are given for `COc1ccc(-c2ccsc2)cc1C1CCN([C@@H]2C[C@H]3CC[C@H]2C3)CC1` [Compound 414]?
A: Emax (M3 muscarinic receptor; [2]): < 25%; M3 Activity (M3 muscarinic receptor): + (activity was measured to be greater than 5.0 μM); Emax (M2 muscarinic receptor; [2]): < 25%; M2 Activity (M2 muscarinic receptor): + (activity was measured to be greater than 5.0 μM); Emax (M4 muscarinic receptor; [2]): 25 to 100%; M4 Activity (M4 muscarinic receptor): ++ (activity was measured to be from 1.0 μM to 5.0 μM); Emax (M1 muscarinic receptor; [2]): < 25%; M1 Activity (M1 muscarinic receptor): + (activity was measured to be greater than 5.0 μM)

Q: Which results are given for `COc1ccc(-c2ccc(C(N)=O)cc2)cc1C1CCN([C@H]2C[C@H]3CC[C@H]2C3)CC1` [Compound 6]?
A: Emax (M3 muscarinic receptor; [1]): < 25%; M3 Activity (M3 muscarinic receptor): + (activity was measured to be greater than 5.0 μM); Emax (M2 muscarinic receptor; [1]): < 25%; M2 Activity (M2 muscarinic receptor): + (activity was measured to be greater than 5.0 μM); Emax (M4 muscarinic receptor; [1]): < 25%; M4 Activity (M4 muscarinic receptor): + (activity was measured to be greater than 5.0 μM); Emax (M1 muscarinic receptor; [1]): < 25%; M1 Activity (M1 muscarinic receptor): + (activity was measured to be greater than 5.0 μM)
